From BindingDB's records for PubMed 29133594 (University of North Carolina at Chapel Hill)

Columns and labels:
Aurora kinase B = Aurora kinase B (Homo sapiens, UniProt Q96GD4); assay: Inhibition of AURKB (unknown origin)
Aurora kinase A = target: T1, Aurora kinase A (Homo sapiens, UniProt O14965); assay: Inhibition of AURKA (unknown origin)
T1 sequence (O14965 whole entry): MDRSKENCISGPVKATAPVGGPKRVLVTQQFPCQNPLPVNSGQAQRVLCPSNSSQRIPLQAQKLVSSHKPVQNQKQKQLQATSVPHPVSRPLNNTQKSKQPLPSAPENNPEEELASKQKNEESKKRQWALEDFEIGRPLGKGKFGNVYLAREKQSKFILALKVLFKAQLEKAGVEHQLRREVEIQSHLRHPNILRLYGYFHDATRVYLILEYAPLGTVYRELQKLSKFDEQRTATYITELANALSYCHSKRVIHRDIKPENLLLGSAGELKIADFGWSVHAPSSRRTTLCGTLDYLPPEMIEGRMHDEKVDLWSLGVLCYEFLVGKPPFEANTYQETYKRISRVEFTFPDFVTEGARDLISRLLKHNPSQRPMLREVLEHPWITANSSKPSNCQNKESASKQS

[1] = target: Mitogen-activated protein kinase 3 (Homo sapiens, UniProt P27361); assay: Inhibition of ERK1 (unknown origin)
[2] = target: Serine/threonine-protein kinase PLK1 (Homo sapiens, UniProt P53350); assay: Inhibition of PLK1 (unknown origin)
[3] = target: RAF proto-oncogene serine/threonine-protein kinase (Homo sapiens, UniProt P04049); assay: Inhibition of CRAF (unknown origin)
[4] = target: RAC-alpha serine/threonine-protein kinase (Homo sapiens, UniProt P31749); assay: Inhibition of AKT1 (unknown origin)
[5] = target: Serine/threonine-protein kinase PLK3 (Homo sapiens, UniProt Q9H4B4); assay: Inhibition of PLK3 (unknown origin)

Measured: IC50

Chain of RAF proto-oncogene serine/threonine-protein kinase (P04049 whole entry): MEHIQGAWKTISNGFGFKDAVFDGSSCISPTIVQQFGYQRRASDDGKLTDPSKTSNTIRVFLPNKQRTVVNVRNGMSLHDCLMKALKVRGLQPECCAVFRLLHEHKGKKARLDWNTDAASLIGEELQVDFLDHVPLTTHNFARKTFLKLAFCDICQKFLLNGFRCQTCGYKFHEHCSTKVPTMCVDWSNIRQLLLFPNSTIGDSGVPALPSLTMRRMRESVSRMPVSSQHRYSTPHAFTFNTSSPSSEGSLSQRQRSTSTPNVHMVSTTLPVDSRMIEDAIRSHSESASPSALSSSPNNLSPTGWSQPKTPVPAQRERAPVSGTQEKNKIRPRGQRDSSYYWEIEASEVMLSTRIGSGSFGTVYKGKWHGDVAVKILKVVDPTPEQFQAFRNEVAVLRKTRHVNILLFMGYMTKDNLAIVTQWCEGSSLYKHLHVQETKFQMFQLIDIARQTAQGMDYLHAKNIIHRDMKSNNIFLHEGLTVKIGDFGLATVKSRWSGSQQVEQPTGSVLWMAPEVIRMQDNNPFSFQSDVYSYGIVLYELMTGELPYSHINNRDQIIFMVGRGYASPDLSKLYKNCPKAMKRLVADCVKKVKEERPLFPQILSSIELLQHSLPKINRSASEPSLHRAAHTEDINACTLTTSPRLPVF
Chain of Mitogen-activated protein kinase 3 (P27361 whole entry): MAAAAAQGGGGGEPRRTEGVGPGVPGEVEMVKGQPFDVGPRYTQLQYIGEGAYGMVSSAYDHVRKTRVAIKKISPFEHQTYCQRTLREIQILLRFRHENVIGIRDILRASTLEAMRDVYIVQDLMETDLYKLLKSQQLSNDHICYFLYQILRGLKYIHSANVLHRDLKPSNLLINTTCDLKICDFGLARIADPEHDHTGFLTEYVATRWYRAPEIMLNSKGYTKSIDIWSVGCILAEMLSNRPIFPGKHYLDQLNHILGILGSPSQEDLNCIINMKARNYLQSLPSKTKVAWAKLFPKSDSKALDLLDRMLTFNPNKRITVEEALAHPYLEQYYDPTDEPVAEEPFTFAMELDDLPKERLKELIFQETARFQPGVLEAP
Chain of Serine/threonine-protein kinase PLK1 (P53350 whole entry): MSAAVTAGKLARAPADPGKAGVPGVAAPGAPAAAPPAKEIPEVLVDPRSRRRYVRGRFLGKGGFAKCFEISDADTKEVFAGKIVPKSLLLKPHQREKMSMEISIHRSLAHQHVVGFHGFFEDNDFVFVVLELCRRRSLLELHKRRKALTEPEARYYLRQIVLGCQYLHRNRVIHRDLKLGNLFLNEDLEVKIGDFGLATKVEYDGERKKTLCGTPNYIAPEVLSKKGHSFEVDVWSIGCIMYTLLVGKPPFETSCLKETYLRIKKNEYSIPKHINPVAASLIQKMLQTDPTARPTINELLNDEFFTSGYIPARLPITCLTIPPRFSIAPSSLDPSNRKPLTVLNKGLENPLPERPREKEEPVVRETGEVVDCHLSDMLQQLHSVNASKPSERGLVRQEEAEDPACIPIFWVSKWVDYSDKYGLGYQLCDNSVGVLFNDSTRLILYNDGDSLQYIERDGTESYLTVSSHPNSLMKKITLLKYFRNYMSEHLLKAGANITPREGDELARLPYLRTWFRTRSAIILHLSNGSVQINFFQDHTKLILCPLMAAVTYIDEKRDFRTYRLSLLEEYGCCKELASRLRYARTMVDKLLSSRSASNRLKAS
Chain of Aurora kinase B (Q96GD4 whole entry): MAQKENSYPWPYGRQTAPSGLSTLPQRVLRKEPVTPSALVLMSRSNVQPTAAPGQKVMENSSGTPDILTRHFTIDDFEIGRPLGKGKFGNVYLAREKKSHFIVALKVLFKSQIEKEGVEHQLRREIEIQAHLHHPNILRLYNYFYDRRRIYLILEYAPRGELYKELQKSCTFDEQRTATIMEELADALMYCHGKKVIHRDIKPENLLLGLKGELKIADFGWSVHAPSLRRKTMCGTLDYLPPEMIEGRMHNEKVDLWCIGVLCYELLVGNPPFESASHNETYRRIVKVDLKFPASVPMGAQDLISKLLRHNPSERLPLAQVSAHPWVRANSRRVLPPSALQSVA
Chain of RAC-alpha serine/threonine-protein kinase (P31749 whole entry): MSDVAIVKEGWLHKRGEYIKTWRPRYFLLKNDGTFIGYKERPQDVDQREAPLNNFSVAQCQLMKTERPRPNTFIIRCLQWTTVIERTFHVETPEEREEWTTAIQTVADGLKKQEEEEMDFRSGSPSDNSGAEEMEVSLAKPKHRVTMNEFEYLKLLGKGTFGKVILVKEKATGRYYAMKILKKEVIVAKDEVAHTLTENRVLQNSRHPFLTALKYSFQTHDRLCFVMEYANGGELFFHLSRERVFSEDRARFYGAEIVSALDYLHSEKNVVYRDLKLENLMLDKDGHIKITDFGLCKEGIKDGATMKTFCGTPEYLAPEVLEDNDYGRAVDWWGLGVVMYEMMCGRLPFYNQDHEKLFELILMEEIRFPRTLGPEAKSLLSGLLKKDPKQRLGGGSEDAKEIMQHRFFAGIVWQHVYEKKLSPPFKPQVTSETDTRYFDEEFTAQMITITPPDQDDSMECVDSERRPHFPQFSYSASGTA
Chain of Serine/threonine-protein kinase PLK3 (Q9H4B4 whole entry): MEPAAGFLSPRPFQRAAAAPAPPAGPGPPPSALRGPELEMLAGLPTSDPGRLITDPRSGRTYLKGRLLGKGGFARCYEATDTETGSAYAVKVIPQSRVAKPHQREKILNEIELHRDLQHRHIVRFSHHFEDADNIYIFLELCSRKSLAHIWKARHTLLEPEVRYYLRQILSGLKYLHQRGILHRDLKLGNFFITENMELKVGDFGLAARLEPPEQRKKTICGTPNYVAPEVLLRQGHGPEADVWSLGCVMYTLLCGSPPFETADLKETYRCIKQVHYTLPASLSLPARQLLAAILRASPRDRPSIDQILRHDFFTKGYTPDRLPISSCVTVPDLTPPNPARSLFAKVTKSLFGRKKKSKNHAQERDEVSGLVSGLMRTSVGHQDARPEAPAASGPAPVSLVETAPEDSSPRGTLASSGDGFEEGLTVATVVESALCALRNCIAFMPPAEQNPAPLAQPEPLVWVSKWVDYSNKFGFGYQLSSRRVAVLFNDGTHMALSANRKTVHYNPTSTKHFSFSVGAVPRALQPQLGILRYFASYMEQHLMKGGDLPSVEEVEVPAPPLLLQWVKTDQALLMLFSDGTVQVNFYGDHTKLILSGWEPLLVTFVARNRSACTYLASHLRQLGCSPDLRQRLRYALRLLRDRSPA

CCN1CCN(Cc2ccc(Nc3ncc(F)c(-c4cc(F)c5nc(C)n(C(C)C)c5c4)n3)nc2)CC1 [Abemaciclib]
> 20 µM: Aurora kinase B | Aurora kinase A | [1] | [2] | [3] | [4] | [5]
